Where a name gives a salt, the structure may show the parent alone.

In the first data set the target is SLC-1 (UniProt Q99705). As to the kind of experiment: Determination of antagonist activity using GTPγS binding assay. The data set is classed as biochemical, human, rat. The conditions noted are these: inhibition of MCH-stimulated [35S]-GTPγS binding, SLC-1 expressing CHO cell membrane fractions, 25° C., 1 hour. As to the method: Membrane fraction was prepared by the following method, using the human SLC-1 expressing CHO cell clone 57 obtained in Reference Example 1-10, and the rat SLC-1 expressing CHO cell clone 44 obtained in Reference Example 1-4.
The human and rat SLC-1 expressing CHO cells (1×10^8) were scraped in buffer saline phosphate (pH 7.4) to which 5 mM EDTA (ethylenediaminetetraacetic acid) had been added, and centrifuged. 10 ml of homogenized buffer (10 mM NaHCO3, 5 mM EDTA, pH 7.5) was added to the cell pellets, and they were homogenized using a Polytron homogenizer. […]
After this reaction mixture was allowed to react at 25° C. for 1 hour under stirring, it was filtered under vacuum using a glass filter (GF-C), then the filter was washed 3 times with 300 μl of washing solution (50 mM Tris-HCl buffer solution pH 7.5). 50 ml of liquid scintillator was added to the glass filter, and residual radioactivity was determined using a liquid scintillation counter.
The IC50 value of the compound was calculated from the binding inhibition rate (%), based on the definition that the binding inhibition rate (%)=(radioactivity when compound and MCH were added−radioactivity when DMSO solution was added)/(radioactivity when MCH was added−radioactivity when DMSO solution was added)×100.
A general note: GTPγS resists hydrolysis and so accumulates on activated G proteins.
Broadly, the IC50 is the concentration that gives 50% inhibition. For `CN(C)CCCc1ccc2c(c1)CCCN2C(=O)c1ccc(-c2ccccc2)cc1` [Example 1, 3-[1-([1,1′-Biphenyl]-4-ylcarbonyl)-1,2,3,4-tetrahydro-6-quinolinyl]-N,N-dimethyl-1-propanamine], the IC50 stood at 0.3 µM. For the molecule `CN(C)C/C=C/c1ccc2c(c1)CCCN2C(=O)c1ccc(-c2ccc(Cl)cc2)cc1` [Example 5, (E)-3-[1-[(4′-Chloro[1,1-biphenyl]-4-yl)carbonyl]-1,2,3,4-tetrahydro-6-quinolinyl]-N,N-dimethyl-2-propen-1-amine], the IC50 was 0.02 µM.

System in the next data set: not given
Test: not given
Conditions: not given
In general, melting point refers to the temperature, or range, at which the solid turns liquid. As for `CCCN(CCC)CCc1ccc2c(c1)N(Cc1cccc3ccccc13)CCO2.Cl`, the melting point was in the range of 177 to 178 °C. On the same count and under the same terms, with `CN1CCc2ccc(C(=O)CCCN3CCC(c4ccc(Cl)cc4)CC3)cc2CC1` (as salt: HCl) (hydrate or solvate) [Example 35, 4-[4-(4-Chlorophenyl)-1-piperidinyl]-1-(3-methyl-2,3,4,5-tetrahydro-1H-3-benzazepin-7-yl)-1-butanone] the figure was 248 to 252 °C (dec.); with `O=C(CCCN1CCC(c2ccc(Cl)cc2)CC1)c1ccc2c(c1)CCNCC2` (as salt: HCl) [Example 34, 4-[4-(4-Chlorophenyl)-1-piperidinyl]-1(2,3,4,5-tetrahydro-1H-3-benzazepin-7-yl)-1-butanone], 243 to 247 °C (dec.).

Consider `CN(C)C/C=C/c1ccc2c(c1)N(C(=O)c1ccc(-c3ccccc3)cc1)CCCC2` (as salt: hydrochloride) [Example 2, (E)-3-[1-([1,1′-Biphenyl]-4-ylcarbonyl)-2,3,4,5-tetrahydro-1H-1-benzazepin-8-yl]-N,N-dimethyl-2-propen-1-amine hydrochloride], for which the melting point was 112 to 113 °C. On to `CN(C)CCCc1ccc2c(c1)N(C(=O)c1ccc(-c3ccccc3)cc1)CCCC2` (as salt: hydrochloride) [Example 3, 3-[1-([1,1′-Biphenyl]-4-ylcarbonyl)-2,3,4,5-tetrahydro-1H-1-benzazepin-8-yl]-N,N-dimethyl-1-propanamine hydrochloride], for which the melting point lay within 84 to 86 °C. `CCCN(CCC)CCc1ccc2c(c1)N(S(=O)(=O)c1ccc(Cl)cc1)CCO2` (as salt: succinate) [Example 137, 4-(4-Chlorobenzenesulfonyl)-3,4-dihydro-6-[2-(N,N-dipropylamino)ethyl]-2H-1,4-benzoxazine succinate] registered a melting point of 130 to 133 °C.

As to `CN(C)CCCc1ccc2c(c1)CCCN2C(=O)c1ccc(-c2ccccc2)cc1` [Example 1, 3-[1-([1,1′-Biphenyl]-4-ylcarbonyl)-1,2,3,4-tetrahydro-6-quinolinyl]-N,N-dimethyl-1-propanamine], the melting point was in the range of 100 to 101 °C. In turn, `CN(C)C/C=C/c1ccc2c(c1)CCCN2C(=O)c1ccc(-c2ccc(Cl)cc2)cc1` [Example 5, (E)-3-[1-[(4′-Chloro[1,1-biphenyl]-4-yl)carbonyl]-1,2,3,4-tetrahydro-6-quinolinyl]-N,N-dimethyl-2-propen-1-amine] had a melting point of 162 to 164 °C.

The molecule `O=C(c1ccc(-c2ccc(Cl)cc2)cc1)N1CCCc2cc(/C=C/CN3CCCCC3)ccc21` [Example 6, 1-[(4′-Chloro[1,1-biphenyl]-4-yl)carbonyl]-6-[(E)-3-piperidino-1-propenyl]-1,2,3,4-tetrahydroquinoline] displayed a melting point of 141 to 143 °C.

Molecule `CN(C)C/C=C/c1ccc2c(c1)CCN2C(=O)c1ccc(-c2ccccc2)cc1` [Example 7, (E)-3-[1-[([1,1′-Biphenyl]-4-yl)carbonyl]-2,3-dihydro-1H-indol-5-yl]-N,N-dimethyl-2-propen-1-amine] showed a melting point of 174 to 176 °C. Still for that read-out and setting: with `COc1ccc(COc2ccc(C(=O)N3CCc4cc(/C=C/CN(C)C)ccc43)cc2)cc1` [Example 9, (E)-3-[1-[4-[(4-Methoxybenzyl)oxy]benzoyl]-2,3-dihydro-1H-indol-5-yl]-N,N-dimethyl-2-propen-1-amine] the figure was 164 to 166 °C. Regarding `O=C(CCC(=O)N1CCC(c2ccc(Cl)cc2)CC1)c1ccc2c(c1)CCN(C(=O)C(F)(F)F)CC2` [Example 14, 4-[4-(4-Chlorophenyl)-1-piperidinyl]-4-oxo-1-[3-(trifluoroacetyl)-2,3,4,5-tetrahydro-1H-3-benzazepin-7-yl]-1-butanone], the melting point lay within 131 to 132 °C. On to `O=C(CCC(=O)N1CCC(c2ccc(Cl)cc2)CC1)c1ccc2c(c1)CCNCC2` [Example 15, 4-[4-(4-Chlorophenyl)-1-piperidinyl]-4-oxo-1-(2,3,4,5-tetrahydro-1H-3-benzazepin-7-yl)-1-butanone], for which the melting point fell in the range of 148 to 149 °C. In turn, `CN1CCc2ccc(C(=O)CCC(=O)N3CCC(c4ccc(Cl)cc4)CC3)cc2CC1` [Example 16, 4-[4-(4-Chlorophenyl)-1-piperidinyl]-4-oxo-1-(3-methyl-2,3,4,5-tetrahydro-1H-3-benzazepin-7-yl)-1-butanone] had a melting point of 143 to 145 °C.

Take `O=C(CCC(=O)N1CCC(c2ccccc2)CC1)c1ccc2c(c1)CCN(C(=O)C(F)(F)F)CC2` [Example 31, 4-Oxo-4-(phenyl-1-piperidinyl)-1-[3-(trifluoroacetyl)-2,3,4,5-tetrahydro-1H-3-benzazepin-7-yl]-1-butanone]: the melting point was in the range of 132 to 133 °C.

For `O=C(CCC(=O)N1CCC(c2ccccc2)CC1)c1ccc2c(c1)CCNCC2` [Example 32, 4-Oxo-4-(phenyl-1-piperidinyl)-1-(2,3,4,5-tetrahydro-1H-3-benzazepin-7-yl)-1-butanone], the melting point turned out to be 114 °C. In turn, `CCCN(CCC)C(=O)Cc1ccc2c(c1)NC(=O)CO2` [Example 133, N,N-Dipropyl-(3,4-dihydro-2H-1,4-benzoxazine-3-oxo-6-yl) acetamide] gave a melting point of 121 to 122 °C. `O=C(CCC(=O)N1CCC(c2ccc(Cl)cc2)CC1)c1ccc2c(c1)CCN(CC1CCCO1)CC2` (stereo not shown) [Example 194, 4-[4-(4-Chlorophenyl)-1-piperidinyl]-4-oxo-1-[3-(tetrahydro-2-furanylmethyl)-2,3,4,5-tetrahydro-1H-3-benzazepin-7-yl]-1-butanone] showed a melting point of 123 to 125 °C.

Molecule `O=C(CCC(=O)N1CCC(c2ccc(Cl)cc2)CC1)c1ccc2c(c1)CCN(C1CCCCC1)CC2` [Example 195, 4-[4-(4-Chlorophenyl)-1-piperidinyl]-1-(3-cyclohexyl-2,3,4,5-tetrahydro-1H-3-benzazepin-7-yl)-4-oxo-1-butanone] returned a melting point of 128 to 130 °C. Take `O=C(CCCC(=O)N1CCC(c2ccc(Cl)cc2)CC1)c1ccc2c(c1)CCNCC2` [Example 205, 5-[4-(4-Chlorophenyl)-1-piperidinyl]-5-oxo-1-(2,3,4,5-tetrahydro-1H-3-benzazepin-7-yl)-1-pentanone]: the melting point is 112 to 113 °C.

For the origin of these results see US7229986B2, “Melanin-concentrating hormone antagonist” (Takeda Pharmaceutical Company Ltd., priority 2000, dated 2007).
